Assay results: patent publication USRE45666E1, “Preparation of hydrophilic pressure sensitive adhesives having optimized adhesive properties” (priority 2000, dated 2015)
Where two headings read alike, the source gives them in different places.

Tests used:
[1] = In vitro drug delivery rate across Carbosil membrane; assay type: in vitro ADME
Experimental: In vitro drug delivery rate determination from water-soluble PSA matrices was performed using human cadaver skin or a skin-imitating Carbosil membrane to protect the matrices from dissolving in the receptor solution. The patch was adhered to the center of a Carbosil membrane sheet of twice its area. The membrane margins were then wrapped around the sample. The back side of the packet was closely attached to a steel plate-holder to prevent direct contact of the matrix with the receptor solution. In a similar fashion, cadaver skin epidermis can be used instead of a Carbosil membrane. The holder with the wrapped sample was then submerged into an aqueous sink and in vitro drug delivery rate was determined using a USP rotating cylinder method paddle-over-disc. The rate of drug appearance rate in a receptor solution (0.15 M NaCl) at 35.0±0.5° C. was determined spectrophotometrically.

[2] = Styrene butadiene rubber matrix

| Molecule | Delivery rate from hydrophilic matrix via Carbosil ([1]; hydrophilic PVP-PEG matrix) | Release rate from hydrophobic matrices [2] | Delivery rate from hydrophilic matrix via Carbosil [1] | Release rate from hydrophobic matrices (PIB matrix (Catapress ® TTS)) |
| --- | --- | --- | --- | --- |
| CC(C)NCC(O)COc1cccc2ccccc12 (stereo not shown) [Propranolol] | 118 ± 25 μg/cm^2h | 56 ± 4 μg/cm^2h | – | – |
| O=[N+]([O-])OCC(CO[N+](=O)[O-])O[N+](=O)[O-] [Nitroglycerin] | – | – | 160 ± 40 μg/cm^2h | – |
| Clc1cccc(Cl)c1N=C1NCCN1 [Clonidine] | 5 ± 2 μg/cm^2h | – | – | 1.6 ± 0.2 μg/cm^2h |
| Silabolin | 131 ± 30 μg/cm^2h | 16 ± 7 μg/cm^2h | – | – |
